Measured values as given in US6720346B2, “Thiazole benzamide derivatives and pharmaceutical compositions for inhibiting cell proliferation” (Agouron Pharmaceuticals, Inc., priority 2001, dated 2004).

What was measured:
CDK2/cyclin A = biological target: T1, CDK2/cyclin A (Homo sapiens, UniProt P24941); assay: Inhibition of CDK2/cyclin A retinoblastoma kinase activity (Ki; % inhibition); format: biochemical; settings: at 0.03 μM
T1 construct: made in house; host or cells: CDK2: insect cells (baculovirus); cyclin A: E. coli
Procedure, shortened: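 Radiometric filter assay of CDK2/proteolyzed cyclin A (baculovirus-expressed human CDK2, 10 or 19 nM) phosphorylating an Rb fragment with 25 μM [³²P/³³P]ATP in pH 7.4 HEPES, 2% DMSO, at 30 °C for 60 or 75 min under initial-rate conditions. Library compounds screened at 30 nM for % inhibition; apparent Ki from concentration series fit to competitive or tight-binding inhibition equations.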

human CDK4/cyclin D3 = biological target: T2, human CDK4/cyclin D3 (Homo sapiens, UniProt P11802); assay: Inhibition of CDK4/cyclin D retinoblastoma kinase activity (Ki; % inhibition); format: biochemical; settings: at 0.03 μM
T2 construct: made in house; host or cells: insect cells co-infected with baculovirus vectors
T2 sequence (P11802 whole entry): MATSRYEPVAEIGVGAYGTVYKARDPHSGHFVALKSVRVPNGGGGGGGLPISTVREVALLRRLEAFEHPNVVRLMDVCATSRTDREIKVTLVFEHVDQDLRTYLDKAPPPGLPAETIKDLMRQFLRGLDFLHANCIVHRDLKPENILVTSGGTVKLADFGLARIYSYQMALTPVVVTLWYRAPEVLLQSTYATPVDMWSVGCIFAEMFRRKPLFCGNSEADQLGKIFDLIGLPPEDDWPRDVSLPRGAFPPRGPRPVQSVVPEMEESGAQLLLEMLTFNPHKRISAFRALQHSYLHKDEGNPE
T2 sequence (P30281 1-264 partner limits assumed): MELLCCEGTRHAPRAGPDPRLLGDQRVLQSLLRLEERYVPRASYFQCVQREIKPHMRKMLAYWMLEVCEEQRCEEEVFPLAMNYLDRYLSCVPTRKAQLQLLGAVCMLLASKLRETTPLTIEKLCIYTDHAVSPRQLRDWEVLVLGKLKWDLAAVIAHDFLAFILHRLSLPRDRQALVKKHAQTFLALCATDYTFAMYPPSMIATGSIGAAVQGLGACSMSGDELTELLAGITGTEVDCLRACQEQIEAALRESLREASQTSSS
Procedure, shortened: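 Insect-cell-expressed CDK4 with truncated cyclin D3 (1-264), 5 nM, phosphorylating His-tagged Rb fragment (386-928) with 25 μM [32/33P]ATP at pH 7.4, 30 °C, 20 min (60 min for tight binders). Filter capture, phosphorimager read; % inhibition at 30 nM compound, Ki from competitive or tight-binding fits.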

HCT-116 cell line = assay: Inhibition of cell growth, MTT tetrazolium salt assay; format: cell-based; settings: for HCT-116 % Inhibition at 0.1 μM: HCT-116, at 0.1 μM; for HCT-116 % Inhibition at 0.25 μM: HCT-116, at 0.25 μM
Procedure, shortened: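 Cells in McCoy's 5A medium were given 4 h before compound addition in 0.5% (v/v) DMSO, then incubated 3–5 days at 37 °C, 5% CO2. After 4 h with 0.2 mg/mL MTT, DMSO-solubilized formazan was read at 540 nm; 50% and 90% growth-inhibitory concentrations came from semi-log plots against vehicle controls.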

Row | Compound | CDK2 % Inhibition at 0.03 μM (CDK2/cyclin A) | CDK4 % Inhibition at 0.03 μM (human CDK4/cyclin D3) | HCT-116 % Inhibition at 0.1 μM (HCT-116 cell line) | HCT-116 % Inhibition at 0.25 μM (HCT-116 cell line) | HCT-116 % Inhibition at 0.25 μM (HCT-116 cell line; 0.25 µM) | HCT-116 % Inhibition at 0.1 μM (HCT-116 cell line; 0.1 µM)
1 | Nc1nc(Nc2ccc(C(=O)Nc3cccc(-c4cnco4)c3)cc2)sc1C(=O)c1c(F)cccc1F [Example G153] | 18% | 15% | 0% | 66% |  | 
2 | CCN1CCCC1CNC(=O)c1ccc(Nc2nc(N)c(C(=O)c3c(F)cccc3F)s2)cc1 (centres unmarked) [Example G154] | 10% | 34% | 17% | 91% |  | 
3 | Nc1nc(Nc2ccc(C(=O)NC(CO)c3ccccc3)cc2)sc1C(=O)c1c(F)cccc1F (centres unmarked) [Example G155] | 32% | 38% | 0% |  | 67% | 
4 | CCC(CO)NC(=O)c1ccc(Nc2nc(N)c(C(=O)c3c(F)cccc3F)s2)cc1 (centres unmarked) [Example G156] | 24% | 24% |  |  | 61% | 0%
5 | CCN(CC)CCNC(=O)c1ccc(Nc2nc(N)c(C(=O)c3c(F)cccc3F)s2)cc1 [Example G157] | 18% | 30% | 0% | 87% |  | 
6 | Nc1nc(Nc2ccc(C(=O)NCCCN3CCCC3)cc2)sc1C(=O)c1c(F)cccc1F [Example G158] | 22% | 40% | 0% | 73% |  | 
7 | CCC(COC)NC(=O)c1ccc(Nc2nc(N)c(C(=O)c3c(F)cccc3F)s2)cc1 (centres unmarked) [Example G159] | 6% | 5% | 0% | 74% |  | 
8 | Nc1nc(Nc2ccc(C(=O)NC(CO)c3ccccc3)cc2)sc1C(=O)c1c(F)cccc1F (centres unmarked) [Example G160] | 24% | 6% | 0% |  | 87% | 
9 | CNC(=O)c1ccccc1NC(=O)c1ccc(Nc2nc(N)c(C(=O)c3c(F)cccc3F)s2)cc1 [Example G161] | 13% | 7% | 0% | 57% |  | 
10 | CC(NC(=O)c1ccc(Nc2nc(N)c(C(=O)c3c(F)cccc3F)s2)cc1)c1ccccc1 (centres unmarked) [Example G162] | 25% | 20% | 3% | 84% |  | 
11 | CCCC(C)NC(=O)c1ccc(Nc2nc(N)c(C(=O)c3c(F)cccc3F)s2)cc1 (centres unmarked) [Example G163] | 16% | 21% | 0% | 67% |  | 
12 | COCCNC(=O)c1ccc(Nc2nc(N)c(C(=O)c3c(F)cccc3F)s2)cc1 [Example G164] | 13% | 19% | 0% | 59% |  | 
13 | CCCOCCNC(=O)c1ccc(Nc2nc(N)c(C(=O)c3c(F)cccc3F)s2)cc1 [Example G165] | 1% | 22% | 0% | 61% |  | 
14 | C[C@@H](NC(=O)c1ccc(Nc2nc(N)c(C(=O)c3c(F)cccc3F)s2)cc1)c1ccccc1 [Example G166] | 22% | 4% | 8% | 90% |  | 
15 | C[C@H](NC(=O)c1ccc(Nc2nc(N)c(C(=O)c3c(F)cccc3F)s2)cc1)c1ccccc1 [Example G167] | 19% | 29% | 26% | 53% |  | 
16 | CC(C)OCCNC(=O)c1ccc(Nc2nc(N)c(C(=O)c3c(F)cccc3F)s2)cc1 [Example G168] | 4% | 17% | 25% | 52% |  | 
17 | COc1ccc(CNC(=O)c2ccc(Nc3nc(N)c(C(=O)c4c(F)cccc4F)s3)cc2)cc1 [Example G169] | 38% | 49% | 32% | 71% |  | 
18 | COc1ccccc1CNC(=O)c1ccc(Nc2nc(N)c(C(=O)c3c(F)cccc3F)s2)cc1 [Example G170] | 26% | 32% | 44% | 78% |  | 
19 | C#CCCN(CCCC)C(=O)c1ccc(Nc2nc(N)c(C(=O)c3c(F)cccc3F)s2)cc1 [Example G171] | 4% | 16% | 30% | 47% |  | 

More lines, main results first:

Row | CDK2 % Inhibition at 0.03 μM (CDK2/cyclin A) | CDK4 % Inhibition at 0.03 μM (human CDK4/cyclin D3) | Compound | HCT-116 % Inhibition at 0.1 μM (HCT-116 cell line) | HCT-116 % Inhibition at 0.25 μM (HCT-116 cell line) | HCT-116 % Inhibition at 0.25 μM (HCT-116 cell line; 0.25 µM) | HCT-116 % Inhibition at 0.1 μM (HCT-116 cell line; 0.1 µM)
20 | 36% | 54% | Nc1nc(Nc2ccc(C(=O)NCc3ccc4c(c3)OCO4)cc2)sc1C(=O)c1c(F)cccc1F [Example G172] | 37% | 61% |  | 
21 | 14% | 21% | Nc1nc(Nc2ccc(C(=O)NCC3CCCCC3)cc2)sc1C(=O)c1c(F)cccc1F [Example G173] | 18% | 54% |  | 
22 | 0% | 15% | CN(CC(O)CO)C(=O)c1ccc(Nc2nc(N)c(C(=O)c3c(F)cccc3F)s2)cc1 (centres unmarked) [Example G174] | 28% | 56% |  | 
23 | 15% | 31% | CC(CO)NC(=O)c1ccc(Nc2nc(N)c(C(=O)c3c(F)cccc3F)s2)cc1 (centres unmarked) [Example G175] |  |  | 47% | 11%
24 | 22% | 21% | Nc1nc(Nc2ccc(C(=O)N[C@@H]3CCc4ccccc43)cc2)sc1C(=O)c1c(F)cccc1F [Example G176] | 32% | 62% |  | 
25 | 10% | 23% | Nc1nc(Nc2ccc(C(=O)NCCc3ccccc3Cl)cc2)sc1C(=O)c1c(F)cccc1F [Example G177] | 24% | 45% |  | 
26 | 20% | 54% | Nc1nc(Nc2ccc(C(=O)NC3CCN(Cc4ccccc4)CC3)cc2)sc1C(=O)c1c(F)cccc1F [Example G178] | 43% | 83% |  | 
27 | −5% | 10% | N#CCCN(CC1CCCO1)C(=O)c1ccc(Nc2nc(N)c(C(=O)c3c(F)cccc3F)s2)cc1 (centres unmarked) [Example G179] | 21% | 42% |  | 
28 | 22% | 29% | Nc1nc(Nc2ccc(C(=O)NCc3ccccn3)cc2)sc1C(=O)c1c(F)cccc1F [Example G180] | 25% | 68% |  | 
29 | 30% | 36% | Nc1nc(Nc2ccc(C(=O)NCc3ccccc3)cc2)sc1C(=O)c1c(F)cccc1F [Example G181] | 28% | 75% |  | 
30 | −2% | 6% | C=C(C)CN(C)C(=O)c1ccc(Nc2nc(N)c(C(=O)c3c(F)cccc3F)s2)cc1 [Example G182] | 23% | 52% |  | 
31 | 23% | 38% | CCC(CO)NC(=O)c1ccc(Nc2nc(N)c(C(=O)c3c(F)cccc3F)s2)cc1 (centres unmarked) [Example G183] |  |  | 48% | 11%
32 | 34% | 36% | Nc1nc(Nc2ccc(C(=O)N[C@H]3CCc4ccccc43)cc2)sc1C(=O)c1c(F)cccc1F [Example G184] | 17% | 58% |  | 
33 | 7% | 20% | COc1ccccc1CCNC(=O)c1ccc(Nc2nc(N)c(C(=O)c3c(F)cccc3F)s2)cc1 [Example G185] | 10% | 49% |  | 
34 | 7% | 30% | CCCCNC(=O)c1ccc(Nc2nc(N)c(C(=O)c3c(F)cccc3F)s2)cc1 [Example G186] | 14% | 51% |  | 
35 | −2% | 12% | CN(C(=O)c1ccc(Nc2nc(N)c(C(=O)c3c(F)cccc3F)s2)cc1)C1CCCCC1 [Example G187] | 16% | 48% |  | 
